In PubChem BioAssay AID2060486 (Molecular Pharmacology Branch, DTP, NCI, 2025):
Where “and” joins values, the source holds several entries; their conditions need not be identical. Identical values can stand only once.

Tested on: IGROV1 complex spheroids (HUVEC, MSC), viability % test/control
Assay: Anticancer human tumor IGROV1 cell line growth inhibition [GQUAD];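 note: spheroids exposed to compounds for 7 days before readout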
Conditions: for viability, T/C: stronger effect = lower value
Source text: DNA G-quadruplex Stabilizer Agents in Combinations in Complex Spheroids
A high-throughput screen of multi-cell type tumor spheroids was designed to identify active combinations of DNA G-quadruplex stabilizer agents and targeted small molecules. Complex spheroids include a stromal component modeled by human endothelial cells (HUVEC) and fibroblasts modeled by human mesenchymal stem cells (MSCs). The concentration ranges selected for each drug and investigational agent were based upon clinically achievable concentrations if the clinical Cmax of the agent was known.
Compounds. The drugs and investigational agents: pidnarulex (CX-5461; NSC782164), APTO-253 (NSC789042), BRACO-19 (NSC847499), peposertib (NSC802822), ceralasertib (NSC780249), elimusertib (NSC800525), camonsertib (NSC841442), AZD-1390 (NSC803789), olaparib (NSC753686), talazoparib (NSC767125), ART-558 (NSC835418), sotorasib (NSC818433), MRTX-1133 (NSC836407), SN-38 (NSC673596), topotecan (NSC609699), etoposide (NSC141540), doxorubicin (NSC123127), gemcitabine (NSC613327), 5-fluorouracil (NSC19893), paclitaxel (NSC125973), vemurafenib (NSC761431), panobinostat (NSC761190), R-306465 (JNJ-16241199; NSC773264), adavosertib (NSC754352), TP-3654 (NSC805149), carboplatin (NSC241240), KSQ-4279 (NSC840948), and staurosporine (NSC755774) were obtained from the National Cancer Institute (NCI) Developmental Therapeutics Program Chemical Repository (34). The FDA-approved anticancer drug set is available from the NCI Developmental Therapeutics Program. […] The stock solutions were prepared in dimethyl sulfoxide (DMSO, Sigma-Aldrich, St. Louis, MO, cat. D2650) at 800-fold the tested concentration and stored at -70 degrees C prior to their use. All drugs and investigational agents were tested over a range starting from a high concentration at or near the clinical Cmax and decreasing in half-log increments. If the clinical Cmax for an agent had not been determined, the highest concentration tested was 10 microM.
2.3 Cell Culture. All cells were maintained in an incubator at 37 degrees C and 5% CO2 with 95% humidity. The PDC lines were cultured according to standard operating procedures established by the NCI PDMR. All PDCs were thawed and cultured in Matrigel-coated flasks prepared with a working solution of 1X Ham's F-12 nutrient mix, without supplementation (Invitrogen, cat. 11765054), 100 U/mL penicillin-streptomycin (Invitrogen, cat. 15140122), and 2.5% Matrigel (Corning Inc., cat. 354248) for the first three passages. The 857933-349-R-J2-PDC line was cultured in 6C/Colon 1B media, which includes advanced DMEM/F-12 (Thermo Fisher Scientific, cat. 12634028), 10 mM HEPES (Thermo Fisher Scientific, cat. 15630080), 1X GlutaMAX supplement (Thermo Fisher Scientific, cat. 35050061), 0.1 mg/mL primocin (InvivoGen, cat. ant-pm-2), 10% defined fetal bovine serum, heat inactivated (HyClone Laboratories Inc., cat. SH30070.03HI), 50% L-WRN conditioned media (ATCC, cat. CRL-3276), 1.25 mM N-Acetyl-L-cysteine (Sigma-Aldrich, cat. A9165), 10 mM nicotinamide (Sigma-Aldrich, cat. N0636), 1X B-27 supplement (Thermo Fisher Scientific, cat. 17504044), 1X N-2 supplement (Thermo Fisher Scientific, cat. 17502048), 10 microM Y-27632 dihydrochloride (Tocris Bioscience, cat. 1254), and 50 ng/mL human EGF recombinant protein (Thermo Fisher Scientific, cat. PHG0311). The 485176-168-R4-J1-PDC line was cultured in Panc media, which includes all 6C/Colon 1B media components plus 100 ng/mL human FGF-10 (Thermo Fisher Scientific, cat. 100-26), 500 nM SB-431542 (Selleckchem, cat. S1067), and gastrin (Tocris, cat. 3006).
[…]

With COc1cc(C2c3cc4c(cc3C(OC3OC5COC(C)OC5C(O)C3O)C3COC(=O)C23)OCO4)cc(OC)c1O (centres undefined) + Cc1cnc(CNC(=O)c2c(=O)c3ccc(N4CCCN(C)CC4)nc3n3c2sc2ccccc23)cn1 the IC50 (curve of first compound, second compound 0.0316 µM) was 56.4 nM, the IC50 (curve of first compound, second compound 0.1 µM) was < 31.6 nM and the IC50 (curve of first compound, second compound 0.316 µM) was < 31.6 nM. For the same compound, the IC50 (curve of first compound, second compound 1 µM) was < 31.6 nM, the IC50 (curve of first compound, second compound 3.16 µM) was < 31.6 nM and the IC50 (curve of first compound, second compound 10 µM) was < 31.6 nM. It also gave a viability, T/C (second compound 0.0316 µM, first compound 0.0316 µM) of 67.3%, a viability, T/C (second compound 0.0316 µM, first compound 0.1 µM) of 32.8% and a viability, T/C (second compound 0.0316 µM, first compound 0.316 µM) of 16.3%. The viability, T/C (second compound 0.0316 µM, first compound 1 µM) was 13.5%, the viability, T/C (second compound 0.0316 µM, first compound 3.16 µM) was 8.96% and the viability, T/C (second compound 0.0316 µM, first compound 10 µM) was 4.09%. The viability, T/C (second compound 0.1 µM, first compound 0.0316 µM) was 37.6%, the viability, T/C (second compound 0.1 µM, first compound 0.1 µM) was 27.9% and the viability, T/C (second compound 0.1 µM, first compound 0.316 µM) was 16%. It also gave a viability, T/C (second compound 0.1 µM, first compound 1 µM) of 10.6%, a viability, T/C (second compound 0.1 µM, first compound 3.16 µM) of 8.64% and a viability, T/C (second compound 0.1 µM, first compound 10 µM) of 5.71%. The viability, T/C (second compound 0.316 µM, first compound 0.0316 µM) was 25.1%, the viability, T/C (second compound 0.316 µM, first compound 0.1 µM) was 19% and the viability, T/C (second compound 0.316 µM, first compound 0.316 µM) was 14.4%. For the same compound, the viability, T/C (second compound 0.316 µM, first compound 1 µM) was 8.91%, the viability, T/C (second compound 0.316 µM, first compound 3.16 µM) was 8.97% and the viability, T/C (second compound 0.316 µM, first compound 10 µM) was 5.79%. It also gave a viability, T/C (second compound 1 µM, first compound 0.0316 µM) of 12.8%, a viability, T/C (second compound 1 µM, first compound 0.1 µM) of 13.7% and a viability, T/C (second compound 1 µM, first compound 0.316 µM) of 13.6%. The viability, T/C (second compound 1 µM, first compound 1 µM) was 11%, the viability, T/C (second compound 1 µM, first compound 3.16 µM) was 7.71% and the viability, T/C (second compound 1 µM, first compound 10 µM) was 6.49%. It also gave a viability, T/C (second compound 3.16 µM, first compound 0.0316 µM) of 9.53%, a viability, T/C (second compound 3.16 µM, first compound 0.1 µM) of 11.8% and a viability, T/C (second compound 3.16 µM, first compound 0.316 µM) of 9.99%. For the same compound, the viability, T/C (second compound 3.16 µM, first compound 1 µM) was 9.79%, the viability, T/C (second compound 3.16 µM, first compound 3.16 µM) was 9.02% and the viability, T/C (second compound 3.16 µM, first compound 10 µM) was 5.67%. The viability, T/C (second compound 10 µM, first compound 0.0316 µM) was 9.66%, the viability, T/C (second compound 10 µM, first compound 0.1 µM) was 11% and the viability, T/C (second compound 10 µM, first compound 0.316 µM) was 10.7%. For the same compound, the viability, T/C (second compound 10 µM, first compound 1 µM) was 9.61%, the viability, T/C (second compound 10 µM, first compound 3.16 µM) was 9.67% and the viability, T/C (second compound 10 µM, first compound 10 µM) was 6.31%.

For O=C(c1cc(Cc2n[nH]c(=O)c3ccccc23)ccc1F)N1CCN(C(=O)C2CC2)CC1, the viability, T/C (compound 0.0316 µM) was 87.6% and 92% and 100%, the viability, T/C (compound 0.1 µM) was 91.8% and 91.9% and 84.2% and the viability, T/C (compound 0.316 µM) was 93.4% and 85.7% and 102%. For the same compound, the viability, T/C (compound 1 µM) was 77.6% and 81.8% and 83.7%, the viability, T/C (compound 3.16 µM) was 63.9% and 52.6% and 40% and the viability, T/C (compound 10 µM) was 26.5% and 25.6% and 20.9%. The IC50 (curve of compound) was 4760 nM and 3580 nM and 2430 nM.
